Data on 17 molecules can be found in paper PMC5345022 (Scientific Reports, 2017).

Entries after “also recorded” stand apart in the source; their conditions may differ.

Assay [1] has as its target T1, human dopamine D2L receptor (Homo sapiens, UniProt P14416). As to the kind of experiment: biochemical.
Procedure: (§2) Receptor binding studies were carried out as described previously[43][44].
(§3) The resulting competition curves of the receptor binding experiments were analysed by nonlinear regression using the algorithms in PRISM 6.0 (GraphPad Software, San Diego, CA). […] IC50 values were transformed to Ki values according to the equation of Cheng and Prusoff[48].
The target of assay [2] is T1, human dopamine D2L receptor. As to the kind of experiment: Radioligand binding assay with [3H]spiperone, membranes of CHO cells stably expressing the receptor. Particulars: for binding affinity (in words): D2R radioligand binding.
Procedure: as §2, §3
For assay [3], the target named is T2, dopamine receptor subtype D2S (Homo sapiens, UniProt P14416). As to the kind of experiment: β-Arrestin-2 recruitment assay (PathHunter), agonist and antagonist mode. The format is cell-based. Also noted: expressed in transfected cells. Particulars: for Emax: D2S-mediated recruitment of β-arrestin-2, PathHunter assay, relative to the maximum effect of quinpirole; for β-arrestin recruitment (in words): agonist mode. How it is done: The measurement of β-arrestin-2 recruitment stimulated by D2R activation was performed using the PathHunter® assay purchased from DiscoveRx (Birmingham, U.K.) according to the manufacturer’s protocol as described previously.
T2 sequence (P14416 1-414 isoform P14416-2): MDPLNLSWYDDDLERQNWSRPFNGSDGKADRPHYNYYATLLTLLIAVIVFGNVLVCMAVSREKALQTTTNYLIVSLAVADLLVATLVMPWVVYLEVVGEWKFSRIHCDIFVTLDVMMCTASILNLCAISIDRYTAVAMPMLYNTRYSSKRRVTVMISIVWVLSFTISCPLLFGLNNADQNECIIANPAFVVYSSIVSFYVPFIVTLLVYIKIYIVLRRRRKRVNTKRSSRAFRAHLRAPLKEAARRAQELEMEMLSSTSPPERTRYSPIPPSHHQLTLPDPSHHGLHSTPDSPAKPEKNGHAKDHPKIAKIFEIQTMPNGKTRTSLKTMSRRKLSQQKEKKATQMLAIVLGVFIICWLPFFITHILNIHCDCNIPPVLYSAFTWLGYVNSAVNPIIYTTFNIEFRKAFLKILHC
The amount of recruitment of β-arrestin was derived from the agonist-induced increase of chemiluminescence, which was expressed in counts per second (cps). Dose-response curves were normalised to basal cps stimulated by buffer (=0%) and the effect of the maximum effect of the reference compound quinpirole (=100%).
(§1) From each curve, a set of mean values was derived and pooled to result in an average curve showing the EC50 and Emax value, respectively.

Assay [4] deals with T2, dopamine receptor subtype D2S. In words: cAMP inhibition assay: inhibition of forskolin-stimulated cAMP accumulation (CAMYEL BRET sensor). The format is cell-based. Also noted: expressed in transfected cells; host or cells: HEK293T cells, transient co-transfection with the CAMYEL sensor. Particulars: for Emax / Inhibition of forskolin-stimulated cAMP accumulation Emax (%): maximum effect relative to the effect of quinpirole. How it is done:
HEK293T cells were transiently co-transfected with pcDNA3L-His-CAMYEL[45] (purchased from ATCC, Manassas, VA via LGC Standards, Wesel, Germany) and D2s receptor, respectively, and the assay was performed according to literature. Twenty-four hours after transfection cells were split into white half-area 96-well plates at 2 × 10^5 cells/well and grown overnight in a phenol-red free medium supplemented with serum (Invitrogen, Darmstadt, Germany). On the day of measurement, the medium was removed and replaced by phosphate buffered saline (PBS). The cells were serum-starved for 1 h before treatment. The assay was started by adding 10 μL of coelenterazine-h (Promega, Mannheim, Germany) to each well to yield a final concentration of 5 μM. After 5 min of incubation, test compounds were added in PBS containing forskolin at a final concentration of 10 μM. After an incubation time of 15 min, BRET measurement was performed with a CLARIOstar plate reader (BMG LabTech, Ortenberg, Germany). […] Curves were normalised to basal BRET ratio obtained from dPBS (0%) and the maximum effect of the reference ligand quinpirole (100%).
Data from cAMP measurements were analysed by normalising the BRET ratios with 0% for the unstimulated receptor and 100% for the full effect of the reference ligand quinpirole. Dose-response curves were calculated by nonlinear regression using the algorithms of PRISM 6.0.
as §1
(cAMP levels reflect the balance of adenylyl cyclase and phosphodiesterase activity.)

T1 sequence (P14416 whole entry): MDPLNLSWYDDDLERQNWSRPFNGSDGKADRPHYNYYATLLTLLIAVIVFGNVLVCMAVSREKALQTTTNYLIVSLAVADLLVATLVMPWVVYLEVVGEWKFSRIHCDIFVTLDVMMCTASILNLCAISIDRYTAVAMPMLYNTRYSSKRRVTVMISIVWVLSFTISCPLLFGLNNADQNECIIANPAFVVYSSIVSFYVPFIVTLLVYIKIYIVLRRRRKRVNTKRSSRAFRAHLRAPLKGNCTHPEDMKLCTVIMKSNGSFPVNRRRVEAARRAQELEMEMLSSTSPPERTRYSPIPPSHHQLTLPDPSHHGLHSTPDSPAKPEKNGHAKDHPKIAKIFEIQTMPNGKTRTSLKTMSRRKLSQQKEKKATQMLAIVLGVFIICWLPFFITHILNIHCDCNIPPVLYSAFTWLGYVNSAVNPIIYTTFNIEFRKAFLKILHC

`COC(=O)C1=CO[C@@H](C)[C@H]2CN3CCc4c([nH]c5ccccc45)[C@@H]3C[C@H]12` [Ajmalicine]: the Ki (commonly a dissociation constant, usually derived from enzyme kinetics or from competition with a known ligand) in assay [1] is over 100 µM.

In assay [2], `CC(C)(C)NCC(O)c1cc(Cl)c(N)c(Cl)c1` (stereo not shown) [Clenbuterol, reference compound] came in with a Ki of 50 µM.

With `Oc1cc(O)c2cc(O)c(-c3cc(O)c(O)c(O)c3)[o+]c2c1` [Delphinidin], the Emax (usually the size of the effect at its maximum, as opposed to the concentration needed) in assay [3] is under 7%. The Ki in assay [1] was found to be 26 µM.

As to `COc1ccc2c(c1OC)CN1CCc3cc4c(cc3C1=C2)OCO4` [Dihydroberberine], the affinity in assay [1] corresponds to a Ki of 75 µM.

Turning to `CC[C@H]1CN2CCc3cc(OC)c(OC)cc3[C@@H]2C[C@@H]1C[C@H]1NCCc2cc(OC)c(OC)cc21` [Emetine, reference compound], in assay [2], the inhibition constant Ki amounted to 37 µM.

On to `CC(Cc1ccc(C(C)(C)C)cc1)CN1C[C@@H](C)O[C@@H](C)C1` (stereo partly shown) [Fenpropimorph], for which, in assay [2], the Ki was over 100 µM.

`CC(=O)OC1C(C)CN(C)C2Cc3c[nH]c4cccc(c34)C12` (stereo not shown) [Fumigaclavine A]: the Emax in assay [3] is under 7%. In addition, the “β-arrestin recruitment (in words)” value in assay [3] is reported as “did not show β-arrestin recruitment”. This molecule also displayed a Ki in assay [2] of 1.1 µM. Besides, the “Ki value relative to the endogenous ligand dopamine” value in assay [2] (D2L radioligand binding) is listed as “seven times higher”. Also, the EC50 (commonly the concentration at which the effect is half-maximal) in assay [4] is 0.25 µM. Besides, the “agonist activity in the cAMP accumulation assay / Gi/o activation (in words)” value was “weak partial agonists” in assay [4] (D2S expressed in HEK cells) and “partial agonism in Gi/o activation” in assay [4] (D2S expressed in HEK cells, listed as fumigaclavine A).

As for `O=C(CC1NCCCC1O)Cn1cnc2cc(Br)c(Cl)cc2c1=O` (stereo not shown) [Halofuginone, reference compound], the Ki in assay [2] was over 50 µM.

For `CN(C)CCc1ccc(O)cc1` [Hordenine], in assay [3], the Emax was under 7% and the “β-arrestin recruitment (in words)” value is recorded as “did not show significant β-arrestin recruitment; also recorded: no β-arrestin-2 recruitment was determined”. The “antagonism of quinpirole-stimulated β-arrestin-2 recruitment (in words)” value in assay [3] (antagonist mode: 30 min pre-incubation, then 300 nM quinpirole) is reported as “antagonised D2-mediated β-arrestin recruitment; also recorded: antagonistic activity; also recorded: completely antagonised quinpirole-stimulated recruitment; also recorded: antagonism in β-arrestin recruitment”. In assay [2], the Ki is 13 µM and the “binding affinity (in words)” value was “low micromolar range”. The EC50 in assay [4] is 3.7 µM. The “agonist activity in the cAMP accumulation assay / Gi/o activation (in words)” value in assay [4] (D2S expressed in HEK cells) is “shows agonist properties; also recorded: almost full D2R-agonist in Gi/o activation”. In addition, the Emax in assay [4] (HEK293, read-out: Inhibition of forskolin-stimulated cAMP accumulation Emax (%), D2S expressed in HEK cells) was 76%.

For the molecule `O=C(CCc1ccc(O)c(O)c1)NCCCNCCCCNCCCNC(=O)CCc1ccc(O)c(O)c1` [Kukoamine A], the Ki in assay [1] is over 100 µM.

Take `COc1cc(C(=O)OCCCCNC(=N)N)cc(OC)c1O` [Leonurine]: the Ki in assay [1] is over 100 µM.

Molecule `NCc1cc(=O)[nH]o1` [Muscimol] came in with a Ki in assay [2] of over 100 µM.

Regarding `N[C@@H](CCCCn1c(C=O)ccc1CO)C(=O)O` [Pyrraline], the Ki in assay [1] is over 100 µM.

As to `N=C(N/N=C/c1ccc(Cl)cc1)N/N=C/c1ccc(Cl)cc1` [Robenidine, reference compound], in assay [3], the Emax is under 7% and the “β-arrestin recruitment (in words)” value was “could not observe any activation; also recorded: did not show any activation”. Moreover, the “binding affinity (in words)” value in assay [2] is on record as “low micromolar range”. Moreover, the “agonist activity in the cAMP accumulation assay / Gi/o activation (in words)” value in assay [4] (D2S expressed in HEK cells) is recorded as “could not observe any activation; also recorded: did not show any activation”. For the same molecule, in assay [4] (HEK293, D2S expressed in HEK cells, read-out: Inhibition of forskolin-stimulated cAMP accumulation Emax (%)), the Emax was under 5%. Moreover, the Ki in assay [1] came to 5.4 µM.

For `C=CC(C)(C)[C@@]12C[C@H]3C(=O)N/C(=C/c4c[nH]cn4)C(=O)N3[C@@H]1Nc1ccccc12` [Roquefortine C], the Ki in assay [1] was over 100 µM.

As for `CC1NCCc2cc(O)c(O)cc21` (stereo not shown) [Salsolinol], in assay [3], the Emax is under 7% and the “β-arrestin recruitment (in words)” value is given as “did not show β-arrestin recruitment”. Besides, in assay [4] (D2S expressed in HEK cells), the “agonist activity in the cAMP accumulation assay / Gi/o activation (in words)” value is “weak partial agonists; also recorded: partial agonism in Gi/o activation” and the “Inhibition of forskolin-stimulated cAMP accumulation Emax (%)” value worked out at 21%. The “Inhibition of forskolin-stimulated cAMP accumulation Emax (%)” value in assay [4] (D2S expressed in HEK cells, listed as salsolinol) is on record as “below 50%”.

Consider `O=C(O)c1cn(-c2ccc(F)cc2)c2cc(N3CCNCC3)c(F)cc2c1=O` [Sarafloxacin, reference compound], for which the Ki in assay [1] was over 100 µM.
